This passage reports inhibition and IC50 results from ChEMBL document CHEMBL5584246, “Novel dihydropyrimidines as promising EGFR & HER2 inhibitors: Insights from experimental and computational studies” (Eur J Med Chem, 2024).

pIC50: −log10 of the molar value.

Sequence of Epidermal growth factor receptor (P00533 whole entry): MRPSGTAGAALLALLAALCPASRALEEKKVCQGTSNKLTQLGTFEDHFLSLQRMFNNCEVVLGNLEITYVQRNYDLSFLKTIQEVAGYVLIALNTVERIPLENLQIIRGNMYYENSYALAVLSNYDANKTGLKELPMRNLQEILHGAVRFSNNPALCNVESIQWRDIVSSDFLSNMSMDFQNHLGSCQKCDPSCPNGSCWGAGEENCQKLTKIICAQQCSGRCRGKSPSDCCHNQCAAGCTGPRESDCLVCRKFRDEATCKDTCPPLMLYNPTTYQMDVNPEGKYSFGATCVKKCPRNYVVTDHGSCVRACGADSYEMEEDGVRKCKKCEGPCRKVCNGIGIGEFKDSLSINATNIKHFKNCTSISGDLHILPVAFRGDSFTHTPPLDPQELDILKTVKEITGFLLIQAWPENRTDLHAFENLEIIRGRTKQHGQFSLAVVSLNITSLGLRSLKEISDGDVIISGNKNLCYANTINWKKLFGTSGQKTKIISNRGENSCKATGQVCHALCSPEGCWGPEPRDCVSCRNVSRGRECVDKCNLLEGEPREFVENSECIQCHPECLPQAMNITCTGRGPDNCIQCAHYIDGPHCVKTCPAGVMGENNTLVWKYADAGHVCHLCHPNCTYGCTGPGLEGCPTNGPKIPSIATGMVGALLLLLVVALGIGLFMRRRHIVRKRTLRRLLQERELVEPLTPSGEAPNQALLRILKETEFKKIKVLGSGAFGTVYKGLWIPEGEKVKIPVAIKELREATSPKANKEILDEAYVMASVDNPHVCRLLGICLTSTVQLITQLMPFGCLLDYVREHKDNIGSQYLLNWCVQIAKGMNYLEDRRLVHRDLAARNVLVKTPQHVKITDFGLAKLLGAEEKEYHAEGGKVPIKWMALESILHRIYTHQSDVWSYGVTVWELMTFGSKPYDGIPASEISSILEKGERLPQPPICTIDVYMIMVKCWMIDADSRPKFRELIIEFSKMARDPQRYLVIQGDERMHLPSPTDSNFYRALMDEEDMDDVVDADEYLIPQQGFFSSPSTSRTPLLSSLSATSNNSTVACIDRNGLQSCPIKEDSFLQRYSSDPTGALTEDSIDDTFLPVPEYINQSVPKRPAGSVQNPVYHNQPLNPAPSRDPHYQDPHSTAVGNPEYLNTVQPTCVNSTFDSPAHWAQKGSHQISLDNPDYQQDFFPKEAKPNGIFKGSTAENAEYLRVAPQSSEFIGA

System in the first series: not listed separately
Briefly: Inhibition of EGFR expression in human MCF7 cells assessed as positive expression region (M2) at 50 nM incubated for 24 hrs by flow cytometry analysis (reference value: 99.36%). It counts as functional.
Conditions: not given
Background: A flow cytometer gives signals particle by particle.
The inhibition is the relative decrease from the control value, in per cent. As for `COc1ccc(NC(=O)C2=C(C)NC(=O)NC2c2ccc(OC)c(OC)c2)c(OC)c1` (stereo not drawn), the inhibition at 0.05 µM amounted to 60%.

System in the next series: not listed separately
Briefly: Inhibition of HER2 expression in human MCF7 cells assessed as positive expression region (M2) at 100 nM incubated for 24 hrs by flow cytometry analysis (reference value: 99.09%). Type of series: functional.
Conditions: not given
On to `COc1ccc(NC(=O)C2=C(C)NC(=O)NC2c2ccc(OC)c(OC)c2)c(OC)c1` (stereo not drawn), for which the inhibition at 0.1 µM stood at 21%.

System in another series: not listed separately
Briefly: Inhibition of HER2 expression in human MCF7 cells assessed as negative expression region (M1) at 1000 nM incubated for 24 hrs by flow cytometry analysis (reference value: 0.98%). Type of series: functional.
Conditions: not given
As to `COc1ccc(NC(=O)C2=C(C)NC(=O)NC2c2ccc(OC)c(OC)c2)c(OC)c1` (stereo not drawn), the inhibition at 1 µM turned out to be 93.4%.

System in the next series: not listed separately
Briefly: Inhibition of HER2 expression in human MCF7 cells assessed as negative expression region (M1) at 500 nM incubated for 24 hrs by flow cytometry analysis (reference value: 0.98%). Type of series: functional.
Conditions: not given
For `COc1ccc(NC(=O)C2=C(C)NC(=O)NC2c2ccc(OC)c(OC)c2)c(OC)c1` (stereo not drawn), the inhibition at 0.5 µM is 89.9%.

System in the next series: not listed separately
Briefly: Inhibition of EGFR expression in human MCF7 cells assessed as negative expression region (M1) at 500 nM incubated for 24 hrs by flow cytometry analysis (reference value: 0.66%). It counts as functional.
Conditions: not given
Consider `COc1ccc(NC(=O)C2=C(C)NC(=O)NC2c2ccc(OC)c(OC)c2)c(OC)c1` (stereo not drawn), for which the inhibition at 0.5 µM turned out to be 94.4%.

System in a further series: not listed separately
Briefly: Inhibition of EGFR expression in human MCF7 cells assessed as positive expression region (M2) at 500 nM incubated for 24 hrs by flow cytometry analysis (reference value: 99.36%). Type of series: functional.
Conditions: not given
Take `COc1ccc(NC(=O)C2=C(C)NC(=O)NC2c2ccc(OC)c(OC)c2)c(OC)c1` (stereo not drawn): the inhibition at 0.5 µM came to 5.73%.

System in the next series: not listed separately
Briefly: Inhibition of HER2 expression in human MCF7 cells assessed as negative expression region (M1) at 100 nM incubated for 24 hrs by flow cytometry analysis (reference value: 0.98%). Type of series: functional.
Conditions: not given
Take `COc1ccc(NC(=O)C2=C(C)NC(=O)NC2c2ccc(OC)c(OC)c2)c(OC)c1` (stereo not drawn): the inhibition at 0.1 µM amounted to 79.3%.

System in another series: not listed separately
Briefly: Inhibition of EGFR expression in human MCF7 cells assessed as negative expression region (M1) at 25 nM incubated for 24 hrs by flow cytometry analysis (reference value: 0.66%). It counts as functional.
Conditions: not given
Consider `COc1ccc(NC(=O)C2=C(C)NC(=O)NC2c2ccc(OC)c(OC)c2)c(OC)c1` (stereo not drawn), for which the inhibition at 0.025 µM turned out to be 18.1%.

System in a further series: not listed separately
Briefly: Cytotoxicity against African green monkey Vero cells assessed as inhibition of cell growth measured after 3 days by MTT assay. The conditions noted are these: African green monkey (Chlorocebus sabaeus). Type of series: toxicity, cell-based. (In general: Formazan colour is commonly taken as a measure of viable cells.)
Broadly, the IC50 is the concentration needed to halve the response being measured. Regarding `COc1ccc(NC(=O)C2=C(C)NC(=O)NC2c2ccc(OC)c(OC)c2)c(OC)c1` (stereo not drawn), the IC50 at 3 days turned out to be 30.1 µM.

System in another series: not listed separately
Briefly: Inhibition of HER2 expression in human MCF7 cells assessed as positive expression region (M2) at 25 nM incubated for 24 hrs by flow cytometry analysis (reference value: 99.09%).
Conditions: not given
Type of series: functional.
Regarding `COc1ccc(NC(=O)C2=C(C)NC(=O)NC2c2ccc(OC)c(OC)c2)c(OC)c1` (stereo not drawn), the inhibition at 0.025 µM stood at 67.9%.

System in a further series: not listed separately
Briefly: Inhibition of HER2 expression in human MCF7 cells assessed as positive expression region (M2) at 500 nM incubated for 24 hrs by flow cytometry analysis (reference value: 99.09%). Type of series: functional.
Conditions: not given
Turning to `COc1ccc(NC(=O)C2=C(C)NC(=O)NC2c2ccc(OC)c(OC)c2)c(OC)c1` (stereo not drawn), the inhibition at 0.5 µM came to 10.3%.

A further series has as its system MCF7. Briefly: Cytotoxicity against human MCF7 cells assessed as inhibition of cell growth measured after 3 days by MTT assay. It counts as functional, cell-based. The conditions noted are these: MCF7, 72 h.
The term pIC50 denotes the negative decadic logarithm of the IC50, by convention in mol/L. For the compound `COc1ccc(NC(=O)C2=C(C)NC(=O)NC2c2ccc(OC)c(OC)c2)c(OC)c1` (stereo not drawn), the pIC50 is 4.85.

System in the next series: not listed separately
Briefly: Inhibition of EGFR expression in human MCF7 cells assessed as positive expression region (M2) at 1000 nM incubated for 24 hrs by flow cytometry analysis (reference value: 99.36%). Type of series: functional.
Conditions: not given
As to `COc1ccc(NC(=O)C2=C(C)NC(=O)NC2c2ccc(OC)c(OC)c2)c(OC)c1` (stereo not drawn), the inhibition at 1 µM is 3.42%.

System in another series: not listed separately
Briefly: Inhibition of EGFR expression in human MCF7 cells assessed as negative expression region (M1) at 1000 nM incubated for 24 hrs by flow cytometry analysis (reference value: 0.66%). It counts as functional.
Conditions: not given
`COc1ccc(NC(=O)C2=C(C)NC(=O)NC2c2ccc(OC)c(OC)c2)c(OC)c1` (stereo not drawn): the inhibition at 1 µM worked out at 96.7%.

System in another series: not listed separately
Briefly: Inhibition of EGFR expression in human MCF7 cells assessed as positive expression region (M2) at 100 nM incubated for 24 hrs by flow cytometry analysis (reference value: 99.36%). Type of series: functional.
Conditions: not given
For the compound `COc1ccc(NC(=O)C2=C(C)NC(=O)NC2c2ccc(OC)c(OC)c2)c(OC)c1` (stereo not drawn), the inhibition at 0.1 µM came out at 32.5%.

System in a further series: not listed separately
Briefly: Inhibition of HER2 expression in human MCF7 cells assessed as negative expression region (M1) at 25 nM incubated for 24 hrs by flow cytometry analysis (reference value: 0.98%). Type of series: functional.
Conditions: not given
Turning to `COc1ccc(NC(=O)C2=C(C)NC(=O)NC2c2ccc(OC)c(OC)c2)c(OC)c1` (stereo not drawn), the inhibition at 0.025 µM was 32.7%.

System in the next series: not listed separately
Briefly: Inhibition of EGFR expression in human MCF7 cells assessed as positive expression region (M2) at 25 nM incubated for 24 hrs by flow cytometry analysis (reference value: 99.36%). It counts as functional.
Conditions: not given
In the case of `COc1ccc(NC(=O)C2=C(C)NC(=O)NC2c2ccc(OC)c(OC)c2)c(OC)c1` (stereo not drawn), the inhibition at 0.025 µM is 82.2%.

System in a further series: not listed separately
Briefly: Inhibition of EGFR expression in human MCF7 cells assessed as negative expression region (M1) at 50 nM incubated for 24 hrs by flow cytometry analysis (reference value: 0.66%). It counts as functional.
Conditions: not given
Regarding `COc1ccc(NC(=O)C2=C(C)NC(=O)NC2c2ccc(OC)c(OC)c2)c(OC)c1` (stereo not drawn), the inhibition at 0.05 µM worked out at 40.2%.

System in a further series: not listed separately
Briefly: Inhibition of HER2 expression in human MCF7 cells assessed as negative expression region (M1) at 50 nM incubated for 24 hrs by flow cytometry analysis (reference value: 0.98%). Type of series: functional.
Conditions: not given
Regarding `COc1ccc(NC(=O)C2=C(C)NC(=O)NC2c2ccc(OC)c(OC)c2)c(OC)c1` (stereo not drawn), the inhibition at 0.05 µM was 63.8%.

System in a further series: not listed separately
Briefly: Inhibition of HER2 expression in human MCF7 cells assessed as positive expression region (M2) at 50 nM incubated for 24 hrs by flow cytometry analysis (reference value: 99.09%). It counts as functional.
Conditions: not given
Turning to `COc1ccc(NC(=O)C2=C(C)NC(=O)NC2c2ccc(OC)c(OC)c2)c(OC)c1` (stereo not drawn), the inhibition at 0.05 µM amounted to 36.8%.

System in the next series: not listed separately
Briefly: Inhibition of HER2 expression in human MCF7 cells assessed as positive expression region (M2) at 1000 nM incubated for 24 hrs by flow cytometry analysis (reference value: 99.09%). Type of series: functional.
Conditions: not given
As to `COc1ccc(NC(=O)C2=C(C)NC(=O)NC2c2ccc(OC)c(OC)c2)c(OC)c1` (stereo not drawn), the inhibition at 1 µM is 6.78%.

A further series addresses Epidermal growth factor receptor (Homo sapiens, UniProt P00533). Briefly: Inhibition of wild type EGFR (unknown origin) incubated for 40 mins in presence of ATP by kinase glo max assay.
Conditions: not given
(In general: Kinase-Glo reads ATP consumption through a luciferase reaction.)
In the case of `COc1ccc(NC(=O)C2=C(C)NC(=O)NC2c2ccc(OC)c(OC)c2)c(OC)c1` (stereo not drawn), the pIC50 was 7.16.

System in another series: not listed separately
Briefly: Inhibition of EGFR expression in human MCF7 cells assessed as negative expression region (M1) at 100 nM incubated for 24 hrs by flow cytometry analysis (reference value: 0.66%). It counts as functional.
Conditions: not given
For `COc1ccc(NC(=O)C2=C(C)NC(=O)NC2c2ccc(OC)c(OC)c2)c(OC)c1` (stereo not drawn), the inhibition at 0.1 µM came out at 68.3%.
